Measurements from US11912723B2, “KRAS modulators and uses thereof” (Quanta Therapeutics, Inc., priority 2022, dated 2024).
pIC50: −log10 of the molar value.

target: T1, KRAS G12D/RAF1 (Homo sapiens, UniProt P01116, G12D); assay: Protein-protein interaction (PPI) HTRF assay KRAS G12D/RAF1; assay type: binding; conditions: KRAS G12D/RAF1, GppNHp-loaded KRAS; 30 minutes pre-incubation
T1 construct: KRAS (1-169) proteins were expressed in E. coli at 18° C; His6-MBP (N, cleaved yes); made in house; host or cells: E. coli
T1 sequence (P01116 1-169 isoform P01116-2 G12D): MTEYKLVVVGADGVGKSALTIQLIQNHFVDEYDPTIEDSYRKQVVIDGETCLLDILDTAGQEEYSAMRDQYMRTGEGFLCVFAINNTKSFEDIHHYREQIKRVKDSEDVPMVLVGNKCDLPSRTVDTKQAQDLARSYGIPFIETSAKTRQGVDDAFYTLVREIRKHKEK
In short: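 Biotinylated GppNHp-loaded RAS (1-169) on streptavidin-d2 acceptor and His-RAF1 RBD (52-131) on anti-His Tb donor, each prepared at 16 nM in pH 7.5 Tris buffer. Compound preincubated with RAS 30 min, then RAF1 added for 1 h at room temperature. IC50 from HTRF 665/615 ratio, normalized to no compound (0%) and untagged RAF1 (100%).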

| Compound | pIC50 |
| --- | --- |
| C[C@@]1(NC#N)CCCN(c2nc(OC[C@@]34CCCN3C[C@H](F)C4)nc3c2COC2(CCc4c(Cl)cccc42)C3)C1 (stereo partly drawn) [Compound 46A, [(3R)-1-[(7*)-4′-chloro-2-[[(2R,8S)-2-fluoro-1,2,3,5,6,7-hexahydropyrrolizin-8-yl]methoxy]spiro[5,8-dihydropyrano[4,3-d]pyrimidine-7,1′-indane]-4-yl]-3-methyl-3-piperidyl]cyanamide; 2,2,2-trifluoroacetic acid] | 4.00 to 5.00 |
| CN(C)C(=O)c1nn2c(c1Cl)CN(c1nc(OCC3(CN4CCOCC4)CC3)nc3c1CO[C@@]1(CCc4c(Cl)cccc41)C3)CCC2 [Compound 47, 3-chloro-5-[(7S)-4′-chloro-2-[[1-(morpholinomethyl)cyclopropyl]methoxy]spiro[5,8-dihydropyrano[4,3-d]pyrimidine-7,1′-indane]-4-yl]-N,N-dimethyl-4,6,7,8-tetrahydropyrazolo[1,5-a][1,4]diazepine-2-carboxamide] | < 4.00 |
| O=C(c1nn2c(c1Cl)CN(c1nc(OC[C@@]34CCCN3C[C@H](F)C4)nc3c1CO[C@@]1(CCc4c(Cl)cccc41)C3)CCC2)N1CCNCC1 [Compound 49, [3-chloro-5-[(7S)-4′-chloro-2-[[(2R,8S)-2-fluoro-1,2,3,5,6,7-hexahydropyrrolizin-8-yl]methoxy]spiro[5,8-dihydropyrano[4,3-d]pyrimidine-7,1′-indane]-4-yl]-4,6,7,8-tetrahydropyrazolo[1,5-a][1,4]diazepin-2-yl]-piperazin-1-yl-methanone] | 4.00 to 5.00 |
| CN1CCN(C(=O)c2nn3c(c2Cl)CN(c2nc(OC[C@@]45CCCN4C[C@H](F)C5)nc4c2CO[C@@]2(CCc5c(Cl)cccc52)C4)CCC3)CC1 [Compound 50, [3-chloro-5-[(7S)-4′-chloro-2-[[(2R,8S)-2-fluoro-1,2,3,5,6,7-hexahydropyrrolizin-8-yl]methoxy]spiro[5,8-dihydropyrano[4,3-d]pyrimidine-7,1′-indane]-4-yl]-4,6,7,8-tetrahydropyrazolo[1,5-a][1,4]diazepin-2-yl]-(4-methylpiperazin-1-yl)methanone] | 4.00 to 5.00 |
| CN(C)C(=O)c1nn2c(c1Cl)CN(c1nc(OC[C@@]34CCCN3C[C@H](F)C4)nc3c1CN(C)[C@@]1(CCc4c(Cl)cccc41)C3)CCC2 [Compound 55, 3-chloro-5-((S)-4-chloro-2′-(((2R,7aS)-2-fluorotetrahydro-1H-pyrrolizin-7a(5H)-yl)methoxy)-6′-methyl-2,3,5′,8′-tetrahydro-6′H-spiro[indene-1,7′-pyrido[4,3-d]pyrimidin]-4′-yl)-N,N-dimethyl-5,6,7,8-tetrahydro-4H-pyrazolo[1,5-a][1,4]diazepine-2-carboxamide] | 4.00 to 5.00 |
| CN1Cc2c(nc(OC[C@@]34CCCN3C[C@H](F)C4)nc2N2CCC[C@]3(C2)NC(=O)NC3=O)C[C@]12CCc1ccccc12 [Compound 60, (5R)-9-[(7S)-2-[[(2R,8S)-2-fluoro-1,2,3,5,6,7-hexahydropyrrolizin-8-yl]methoxy]-6-methyl-spiro[5,8-dihydropyrido[4,3-d]pyrimidine-7,1′-indane]-4-yl]-1,3,9-triazaspiro[4.5]decane-2,4-dione] | 4.00 to 5.00 |
| CN(C)C(=O)c1nn2c(c1Cl)CN(c1nc(OC[C@@]34CCCN3C[C@H](F)C4)nc3c1CN(C)[C@@]1(CCc4c(F)ccc(F)c41)C3)CCC2 [Compound 61, 3-chloro-5-[(7S)-4′,7′-difluoro-2-[[(2R,8S)-2-fluoro-1,2,3,5,6,7-hexahydropyrrolizin-8-yl]methoxy]-6-methyl-spiro[5,8-dihydropyrido[4,3-d]pyrimidine-7,1′-indane]-4-yl]-N,N-dimethyl-4,6,7,8-tetrahydropyrazolo[1,5-a][1,4]diazepine-2-carboxamide] | 4.00 to 5.00 |
| CN(C)C(=O)c1nn2c(c1Cl)CN(c1nc(OC[C@@]34CCCN3C[C@H](F)C4)nc3c1CN(C)[C@@]1(CCc4cccc(F)c41)C3)CCC2 [Compound 63, 3-chloro-5-[(7S)-7′-fluoro-2-[[(2R,8S)-2-fluoro-1,2,3,5,6,7-hexahydropyrrolizin-8-yl]methoxy]-6-methyl-spiro[5,8-dihydropyrido[4,3-d]pyrimidine-7,1′-indane]-4-yl]-N,N-dimethyl-4,6,7,8-tetrahydropyrazolo[1,5-a][1,4]diazepine-2-carboxamide] | 4.00 to 5.00 |
| CN(C)C(=O)c1nn2c(c1Cl)CN(c1nc(OC[C@@]34CCCN3C[C@H](F)C4)nc3c1CN(C)[C@@]1(CCc4c(F)cccc41)C3)CCC2 [Compound 65, 3-chloro-5-[(7S)-4′-fluoro-2-[[(2R,8S)-2-fluoro-1,2,3,5,6,7-hexahydropyrrolizin-8-yl]methoxy]-6-methyl-spiro[5,8-dihydropyrido[4,3-d]pyrimidine-7,1′-indane]-4-yl]-N,N-dimethyl-4,6,7,8-tetrahydropyrazolo[1,5-a][1,4]diazepine-2-carboxamide] | 4.00 to 5.00 |
| CN(C)C(=O)c1nn2c(c1Cl)CN(c1nc(OC[C@@]34CCCN3C[C@H](F)C4)nc3c1CN(C)[C@@]1(CCc4cccc(Cl)c41)C3)CCC2 [Compound 69, 3-chloro-5-[(7S)-7′-chloro-2-[[(2R,8S)-2-fluoro-1,2,3,5,6,7-hexahydropyrrolizin-8-yl]methoxy]-6-methyl-spiro[5,8-dihydropyrido[4,3-d]pyrimidine-7,1′-indane]-4-yl]-N,N-dimethyl-4,6,7,8-tetrahydropyrazolo[1,5-a][1,4]diazepine-2-carboxamide] | 4.00 to 5.00 |
| CN(C)C(=O)c1cc2n(n1)CCCN(c1nc(OC[C@@]34CCCN3C[C@H](F)C4)nc3c1CN(C)[C@@]1(CCCc4ccccc41)C3)C2 [Compound 72, 5-[(7S)-2-[[(2R,8S)-2-fluoro-1,2,3,5,6,7-hexahydropyrrolizin-8-yl]methoxy]-6-methyl-spiro[5,8-dihydropyrido[4,3-d]pyrimidine-7,1′-tetralin]-4-yl]-N,N-dimethyl-4,6,7,8-tetrahydropyrazolo[1,5-a][1,4]diazepine-2-carboxamide] | 4.00 to 5.00 |
| CN1Cc2c(nc(OC[C@@]34CCCN3C[C@H](F)C4)nc2N2CCCn3nc(N)c(Cl)c3C2)C[C@]12CCCc1ccccc12 [Compound 79, 3-chloro-5-[(7S)-2-[[(2R,8S)-2-fluoro-1,2,3,5,6,7-hexahydropyrrolizin-8-yl]methoxy]-6-methyl-spiro[5,8-dihydropyrido[4,3-d]pyrimidine-7,1′-tetralin]-4-yl]-4,6,7,8-tetrahydropyrazolo[1,5-a][1,4]diazepin-2-amine] | < 4.00 |
| CN1Cc2c(nc(OC[C@@]34CCCN3C[C@H](F)C4)nc2N2C[C@H]3CC[C@@H](C2)N3)C[C@]12CCCc1ccccc12 [Compound 84, (7S)-4-[(1R,5S)-3,8-diazabicyclo[3.2.1]octan-3-yl]-2-[[(2R,8S)-2-fluoro-1,2,3,5,6,7-hexahydropyrrolizin-8-yl]methoxy]-6-methyl-spiro[5,8-dihydropyrido[4,3-d]pyrimidine-7,1′-tetralin]] | < 4.00 |
| Cc1nc(-c2nn3c(c2Cl)CN(c2nc(OC[C@@]45CCCN4C[C@H](F)C5)nc4c2CN(C)[C@@]2(CCCc5ccccc52)C4)CCC3)no1 [Compound 87, 3-[3-chloro-5-[(7S)-2-[[(2R,8S)-2-fluoro-1,2,3,5,6,7-hexahydropyrrolizin-8-yl]methoxy]-6-methyl-spiro[5,8-dihydropyrido[4,3-d]pyrimidine-7,1′-tetralin]-4-yl]-4,6,7,8-tetrahydropyrazolo[1,5-a][1,4]diazepin-2-yl]-5-methyl-1,2,4-oxadiazole] | 4.00 to 5.00 |
| CN(C)CC1(COc2nc3c(c(N4CCCn5nc(C(=O)N(C)C)c(Cl)c5C4)n2)CN(C)[C@@]2(CCCc4ccccc42)C3)CC1(F)F (stereo partly drawn) [Compound 97, 3-chloro-5-[(7S)-2-[[1-[(dimethylamino)methyl]-2,2-difluoro-cyclopropyl]methoxy]-6-methyl-spiro[5,8-dihydropyrido[4,3-d]pyrimidine-7,1′-tetralin]-4-yl]-N,N-dimethyl-4,6,7,8-tetrahydropyrazolo[1,5-a][1,4]diazepine-2-carboxamide] | < 4.00 |
| CN1Cc2c(nc(OC[C@@]34CCCN3C[C@H](F)C4)nc2N2CCCn3nc(-c4nnnn4C)c(Cl)c3C2)C[C@]12CCCc1ccccc12 [Compound 99, (7S)-4-[3-chloro-2-(1-methyltetrazol-5-yl)-4,6,7,8-tetrahydropyrazolo[1,5-a][1,4]diazepin-5-yl]-2-[[(2R,8S)-2-fluoro-1,2,3,5,6,7-hexahydropyrrolizin-8-yl]methoxy]-6-methyl-spiro[5,8-dihydropyrido[4,3-d]pyrimidine-7,1′-tetralin]] | < 4.00 |
